Experimental data from patent US8901118B2, “Compounds and methods for kinase modulation, and indications therefor” (Plexxikon Inc., priority 2010, dated 2014).

Molecular target: Fms kinase (Homo sapiens, UniProt P07333)
Assay: Fms kinase biochemical activity assay (AlphaScreen, biotin-(E4Y)10 phosphorylation)
Conditions: 100 μM ATP; read-out: Biochemical Inhibition IC50 Fms
Method in brief: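 AlphaScreen read-out (PY20 acceptor, streptavidin donor beads, EDTA stop) of biotin-(E4Y)10 phosphorylation, with IC50 taken from the concentration–signal curve. Reaction: 30 nM substrate, 100 μM ATP, 1 ng/well Fms, Hepes pH 7.5 with Mg2+/Mn2+, 5% DMSO, 20 min at 30 °C.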

Sequence of Fms kinase (P07333 20-972): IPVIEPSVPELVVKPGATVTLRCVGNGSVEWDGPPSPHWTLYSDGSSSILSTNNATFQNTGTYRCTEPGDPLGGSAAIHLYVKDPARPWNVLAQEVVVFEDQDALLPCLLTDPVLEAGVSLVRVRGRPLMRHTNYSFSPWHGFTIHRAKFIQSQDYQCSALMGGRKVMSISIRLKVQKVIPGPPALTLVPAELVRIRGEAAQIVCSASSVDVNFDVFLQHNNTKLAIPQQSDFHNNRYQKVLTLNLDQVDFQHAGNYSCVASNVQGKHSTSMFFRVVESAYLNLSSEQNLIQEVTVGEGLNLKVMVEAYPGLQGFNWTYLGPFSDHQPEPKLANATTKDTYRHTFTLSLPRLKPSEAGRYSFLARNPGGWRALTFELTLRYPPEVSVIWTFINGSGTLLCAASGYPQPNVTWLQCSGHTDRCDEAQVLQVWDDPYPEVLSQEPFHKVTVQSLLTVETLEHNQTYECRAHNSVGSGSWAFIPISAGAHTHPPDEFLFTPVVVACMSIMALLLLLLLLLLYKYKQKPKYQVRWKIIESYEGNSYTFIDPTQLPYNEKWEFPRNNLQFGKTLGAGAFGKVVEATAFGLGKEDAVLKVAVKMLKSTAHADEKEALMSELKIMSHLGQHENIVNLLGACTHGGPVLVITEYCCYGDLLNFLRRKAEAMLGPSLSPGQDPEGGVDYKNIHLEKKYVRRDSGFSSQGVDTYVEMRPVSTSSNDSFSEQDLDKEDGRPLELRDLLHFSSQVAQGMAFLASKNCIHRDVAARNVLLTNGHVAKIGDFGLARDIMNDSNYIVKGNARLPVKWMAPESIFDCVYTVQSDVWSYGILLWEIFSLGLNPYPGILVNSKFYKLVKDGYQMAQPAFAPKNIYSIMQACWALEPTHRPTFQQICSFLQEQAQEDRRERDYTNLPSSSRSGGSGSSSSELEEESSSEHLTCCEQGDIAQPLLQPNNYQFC

Row | Compound | IC50
1 | Clc1cnc2[nH]cc(Cc3cnc(NC4CCCCC4)nc3)c2c1 [Compound P-3001, [5-(5-chloro-1H-pyrrolo[2,3-b]pyridin-3-ylmethyl)-pyrimidin-2-yl]-cyclohexyl-amine] | < 100 nM
2 | Clc1cnc2[nH]cc(Cc3cnc(NC4CCCC4)nc3)c2c1 [Compound P-3003, [5-(5-Chloro-1H-pyrrolo[2,3-b]pyridin-3-ylmethyl)-pyrimidin-2-yl]-cyclopentyl-amine] | < 1000 nM
3 | Clc1cnc2[nH]cc(Cc3cnc(NC4CC4)nc3)c2c1 [Compound P-3005, [5-(5-Chloro-1H-pyrrolo[2,3-b]pyridin-3-ylmethyl)-pyrimidin-2-yl]-cyclopropyl-amine] | < 1000 nM
4 | Clc1cnc2[nH]cc(Cc3cnc(NC4CCCCCC4)nc3)c2c1 [Compound P-3006, [5-(5-Chloro-1H-pyrrolo[2,3-b]pyridin-3-ylmethyl)-pyrimidin-2-yl]-cycloheptyl-amine] | < 10 nM
5 | COc1ccc(Nc2ncc(Cc3c[nH]c4ncc(C)cc34)cn2)cc1F [Compound P-3023, (3-Fluoro-4-methoxy-phenyl)-[5-(5-methyl-1H-pyrrolo[2,3-b]pyridin-3-ylmethyl)-pyrimidin-2-yl]-amine] | < 100 nM
6 | Cc1cnc2[nH]cc(Cc3cnc(Nc4cc(-c5ccc(F)cc5)n[nH]4)nc3)c2c1 [Compound P-3028, [5-(4-Fluoro-phenyl)-2H-pyrazol-3-yl]-[5-(5-methyl-1H-pyrrolo[2,3-b]pyridin-3-ylmethyl)-pyrimidin-2-yl]-amine] | > 1000 nM
7 | Cc1cnc2[nH]cc(Cc3cnc(Nc4cc(C(C)(C)C)n[nH]4)nc3)c2c1 [Compound P-3029, (5-tert-Butyl-2H-pyrazol-3-yl)-[5-(5-methyl-1H-pyrrolo[2,3-b]pyridin-3-ylmethyl)-pyrimidin-2-yl]-amine] | < 100 nM
8 | Cc1cnc2[nH]cc(Cc3cnc(Nc4ccc(C(C)(C)C)cc4)nc3)c2c1 [Compound P-3030, (4-tert-Butyl-phenyl)-[5-(5-methyl-1H-pyrrolo[2,3-b]pyridin-3-ylmethyl)-pyrimidin-2-yl]-amine amine] | < 100 nM
9 | Cc1cnc2[nH]cc(Cc3cnc(Nc4ccc(C(O)(C(F)(F)F)C(F)(F)F)cc4)nc3)c2c1 [Compound P-3031, 1,1,1,3,3,3-Hexafluoro-2-{4-[5-(5-methyl-1H-pyrrolo[2,3-b]pyridin-3-ylmethyl)-pyrimidin-2-ylamino]-phenyl}-propan-2-ol] | < 1000 nM
10 | Cc1cnc2[nH]cc(Cc3cnc(Nc4cc(C5CC5)n[nH]4)nc3)c2c1 [Compound P-3032, (5-Cyclopropyl-2H-pyrazol-3-yl)-[5-(5-methyl-1H-pyrrolo[2,3-b]pyridin-3-ylmethyl)-pyrimidin-2-yl]-amine] | > 1000 nM
11 | CSc1ccc(Nc2ncc(Cc3c[nH]c4ncc(C)cc34)cn2)cc1 [Compound P-3033, [5-(5-Methyl-1H-pyrrolo[2,3-b]pyridin-3-ylmethyl)-pyrimidin-2-yl]-(4-methylsulfanyl-phenyl)-amine] | < 100 nM
12 | Cc1cnc2[nH]cc(Cc3cnc(Nc4ccc(S(C)(=O)=O)cc4)nc3)c2c1 [Compound P-3034, (4-Methanesulfonyl-phenyl)-[5-(5-methyl-1H-pyrrolo[2,3-b]pyridin-3-ylmethyl)-pyrimidin-2-yl]-amine] | < 100 nM
13 | Cc1cnc2[nH]cc(Cc3cnc(Nc4cc(C(F)(F)F)n[nH]4)nc3)c2c1 [Compound P-3037, [5-(5-Methyl-1H-pyrrolo[2,3-b]pyridin-3-ylmethyl)-pyrimidin-2-yl]-(5-trifluoromethyl-2H-pyrazol-3-yl)-amine] | > 1000 nM
14 | Cc1cnc2[nH]cc(Cc3cnc(Nc4cc(OC(C)C)n[nH]4)nc3)c2c1 [Compound P-3038, (5-Isopropoxy-2H-pyrazol-3-yl)-[5-(5-methyl-1H-pyrrolo[2,3-b]pyridin-3-ylmethyl)-pyrimidin-2-yl]-amine] | < 1000 nM
15 | CCc1ccc(Nc2ccc(Cc3c[nH]c4ncc(C)cc34)c(F)n2)cn1 [Compound P-3048, (6-Ethyl-pyridin-3-yl)-[6-fluoro-5-(5-methyl-1H-pyrrolo[2,3-b]pyridin-3-ylmethyl)-pyridin-2-yl]-amine] | < 10 nM
16 | CCc1ccc(Nc2ccc(C(=O)c3c[nH]c4ncc(C)cc34)c(F)n2)cn1 [Compound P-3049, [6-(6-Ethyl-pyridin-3-ylamino)-2-fluoro-pyridin-3-yl]-(5-methyl-1H-pyrrolo[2,3-b]pyridin-3-yl)-methanone] | < 10 nM
17 | Cc1cnc2[nH]cc(Cc3ccc(Nc4ccc(C5CC5)nc4)nc3F)c2c1 [Compound P-3050, (6-Cyclopropyl-pyridin-3-yl)-[6-fluoro-5-(5-methyl-1H-pyrrolo[2,3-b]pyridin-3-ylmethyl)-pyridin-2-yl]-amine] | < 100 nM
18 | Cc1cnc2[nH]cc(C(=O)c3ccc(Nc4ccc(C5CC5)nc4)nc3F)c2c1 [Compound P-3051, [6-(6-Cyclopropyl-pyridin-3-ylamino)-2-fluoro-pyridin-3-yl]-(5-methyl-1H-pyrrolo[2,3-b]pyridin-3-yl)-methanone] | < 10 nM
19 | O=C(c1ccc(Nc2ccc(C3CC3)nc2)nc1F)c1c[nH]c2ncccc12 [Compound P-3052, [6-(6-Cyclopropyl-pyridin-3-ylamino)-2-fluoro-pyridin-3-yl]-(1H-pyrrolo[2,3-b]pyridin-3-yl)-methanone] | < 100 nM
20 | Fc1nc(Nc2ccc(C3CC3)nc2)ccc1Cc1c[nH]c2ncccc12 [Compound P-3053, (6-Cyclopropyl-pyridin-3-yl)-[6-fluoro-5-(1H-pyrrolo[2,3-b]pyridin-3-ylmethyl)-pyridin-2-yl]-amine] | < 10 nM
21 | COc1ccc(Nc2ccc(Cc3c[nH]c4ncnc(C)c34)c(F)n2)cn1 [Compound P-4002, [6-Fluoro-5-(4-methyl-7H-pyrrolo[2,3-d]pyrimidin-5-ylmethyl)-pyridin-2-yl]-(6-methoxy-pyridin-3-yl)-amine] | < 100 nM
22 | Cc1cncc(Nc2ccc(Cc3c[nH]c4ncnc(C5CC5)c34)c(F)n2)c1 [Compound P-4038, [5-(4-Cyclopropyl-7H-pyrrolo[2,3-d]pyrimidin-5-ylmethyl)-6-fluoro-pyridin-2-yl]-(5-methyl-pyridin-3-yl)-amine] | < 100 nM
23 | Cc1cncc(Nc2ccc(C(=O)c3c[nH]c4ncnc(C5CC5)c34)c(F)n2)c1 [Compound P-4039, (4-Cyclopropyl-7H-pyrrolo[2,3-d]pyrimidin-5-yl)-[2-fluoro-6-(5-methyl-pyridin-3-ylamino)-pyridin-3-yl]-methanone] | < 1000 nM
24 | Fc1nc(NC2CCC(F)(F)CC2)ccc1Cc1c[nH]c2ncnc(NCC(F)(F)F)c12 [Compound P-4128, 5-[[6-[(4,4-difluorocyclohexyl)amino]-2-fluoro-3-pyridyl]methyl]-N-(2,2,2-trifluoroethyl)-7H-pyrrolo[2,3-d]pyrimidin-4-amine] | < 100 nM
25 | Fc1nc(NC2CCC(F)(F)CC2)ccc1Cc1c[nH]c2ncnc(NC3CC3)c12 [Compound P-4129, N-cyclopropyl-5-[[6-[(4,4-difluorocyclohexyl)amino]-2-fluoro-3-pyridyl]methyl]-7H-pyrrolo[2,3-d]pyrimidin-4-amine] | < 100 nM
26 | Fc1nc(Nc2ccc(C3CC3)nc2)ccc1Cc1c[nH]c2ncnc(NCC(F)(F)F)c12 [Compound P-4130, 5-[[6-[(6-cyclopropyl-3-pyridyl)amino]-2-fluoro-3-pyridyl]methyl]-N-(2,2,2-trifluoroethyl)-7H-pyrrolo[2,3-d]pyrimidin-4-amine] | < 10 nM
